According to ChEMBL document CHEMBL5608166, “Current therapy in amyotrophic lateral sclerosis (ALS): A review on past and future therapeutic strategies” (Eur J Med Chem, 2024):

Biological target: Tau-tubulin kinase 2 (Homo sapiens, UniProt Q6IQ55)
Test: Inhibition of TTBK2 (unknown origin)

Chain of Tau-tubulin kinase 2 (Q6IQ55 whole entry): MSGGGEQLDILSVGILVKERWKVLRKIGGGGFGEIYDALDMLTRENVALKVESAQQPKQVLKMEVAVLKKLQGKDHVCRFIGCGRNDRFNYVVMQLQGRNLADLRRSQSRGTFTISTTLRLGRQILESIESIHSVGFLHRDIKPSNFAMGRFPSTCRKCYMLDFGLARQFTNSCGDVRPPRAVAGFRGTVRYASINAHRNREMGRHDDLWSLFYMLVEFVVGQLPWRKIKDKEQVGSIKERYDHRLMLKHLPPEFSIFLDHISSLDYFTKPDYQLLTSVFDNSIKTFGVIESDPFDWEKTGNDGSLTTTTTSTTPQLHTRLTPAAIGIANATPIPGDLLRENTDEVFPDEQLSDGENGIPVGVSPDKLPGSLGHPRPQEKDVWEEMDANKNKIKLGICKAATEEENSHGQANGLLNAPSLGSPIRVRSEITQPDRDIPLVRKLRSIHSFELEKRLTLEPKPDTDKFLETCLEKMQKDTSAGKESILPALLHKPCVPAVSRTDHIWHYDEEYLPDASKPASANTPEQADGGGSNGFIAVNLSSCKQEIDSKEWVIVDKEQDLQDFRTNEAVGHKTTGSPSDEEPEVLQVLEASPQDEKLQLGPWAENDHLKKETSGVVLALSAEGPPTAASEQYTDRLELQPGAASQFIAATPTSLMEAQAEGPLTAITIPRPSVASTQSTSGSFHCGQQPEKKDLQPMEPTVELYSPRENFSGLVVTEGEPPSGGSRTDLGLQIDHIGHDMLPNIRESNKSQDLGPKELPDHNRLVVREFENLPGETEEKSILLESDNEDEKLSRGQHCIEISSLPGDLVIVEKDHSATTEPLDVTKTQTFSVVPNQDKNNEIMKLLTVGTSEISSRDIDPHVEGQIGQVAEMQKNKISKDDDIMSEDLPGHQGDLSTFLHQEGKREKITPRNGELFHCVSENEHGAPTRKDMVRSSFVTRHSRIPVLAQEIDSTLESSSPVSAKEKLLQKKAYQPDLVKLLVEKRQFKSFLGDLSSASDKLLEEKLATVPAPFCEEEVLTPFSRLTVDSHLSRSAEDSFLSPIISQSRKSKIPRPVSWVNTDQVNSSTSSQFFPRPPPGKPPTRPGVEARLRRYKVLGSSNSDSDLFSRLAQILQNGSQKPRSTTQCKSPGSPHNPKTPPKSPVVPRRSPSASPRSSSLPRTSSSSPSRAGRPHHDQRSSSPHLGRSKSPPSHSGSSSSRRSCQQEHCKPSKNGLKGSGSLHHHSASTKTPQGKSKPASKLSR

IC50: 1.6 nM
SMILES: CC1(N)CCN(Cc2ccn3ncnc(Nc4cc(O)cc(Br)c4)c23)CC1
